Test results reported in PubChem BioAssay AID1963846 (Molecular Pharmacology Branch, DTP, NCI, 2024).

System: 454973-116-R2-J3-PDC complex spheroid viability
Test: Anticancer human tumor 454973-116-R2-J3-PDC patient-derived pancreatic carcinoma cell line growth inhibition [POLQ]
Details: for IC50: curve of first compound; for viability, T/C: stronger effect = lower value
How it was run: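 Patient-derived tumour cells were co-cultured with HUVEC and mesenchymal stem cells as multicellular spheroids at 37 °C. They were treated with POLQ inhibitors (novobiocin, ART-558, RP6685) alone or combined with other agents. Top concentrations were at or near clinical Cmax (otherwise 10 microM; SN-38 at 1 microM), decreasing in half-log steps.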

[1] = second compound 0.0316 µM, first compound 0.0316 µM
[2] = second compound 0.0316 µM, first compound 0.1 µM
[3] = second compound 0.0316 µM, first compound 0.316 µM
[4] = second compound 0.0316 µM, first compound 1 µM
[5] = second compound 0.0316 µM, first compound 3.16 µM
[6] = second compound 0.0316 µM, first compound 10 µM
[7] = second compound 0.1 µM, first compound 0.0316 µM
[8] = second compound 0.1 µM, first compound 0.1 µM
[9] = second compound 0.1 µM, first compound 0.316 µM
[10] = second compound 0.1 µM, first compound 1 µM
[11] = second compound 0.1 µM, first compound 3.16 µM
[12] = second compound 0.1 µM, first compound 10 µM
[13] = second compound 0.316 µM, first compound 0.0316 µM
[14] = second compound 0.316 µM, first compound 0.1 µM
[15] = second compound 0.316 µM, first compound 0.316 µM
[16] = second compound 0.316 µM, first compound 1 µM
[17] = second compound 0.316 µM, first compound 3.16 µM
[18] = second compound 0.316 µM, first compound 10 µM
[19] = second compound 1 µM, first compound 0.0316 µM
[20] = second compound 1 µM, first compound 0.1 µM
[21] = second compound 1 µM, first compound 0.316 µM
[22] = second compound 1 µM, first compound 1 µM
[23] = second compound 1 µM, first compound 3.16 µM
[24] = second compound 1 µM, first compound 10 µM
[25] = second compound 3.16 µM, first compound 0.0316 µM
[26] = second compound 3.16 µM, first compound 0.1 µM
[27] = second compound 3.16 µM, first compound 0.316 µM
[28] = second compound 3.16 µM, first compound 1 µM
[29] = second compound 3.16 µM, first compound 3.16 µM
[30] = second compound 3.16 µM, first compound 10 µM
[31] = second compound 10 µM, first compound 0.0316 µM
[32] = second compound 10 µM, first compound 0.1 µM
[33] = second compound 10 µM, first compound 0.316 µM
[34] = second compound 10 µM, first compound 1 µM
[35] = second compound 10 µM, first compound 3.16 µM
[36] = second compound 10 µM, first compound 10 µM
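Also: spheroids exposed to drugs for seven days before measurement.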
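For viability, T/C in this document: percent viability relative to DMSO vehicle control wells taken as 100%.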

Compound: CC(=O)O[C@H]1C(=O)[C@@]2(C)[C@H]([C@H](OC(=O)c3ccccc3)[C@]3(O)C[C@H](OC(=O)[C@H](O)[C@@H](NC(=O)c4ccccc4)c4ccccc4)C(C)=C1C3(C)C)[C@]1(OC(C)=O)CO[C@@H]1C[C@@H]2O + Nc1ccc(C#CCN(C(=O)Cc2ncc(C(F)(F)F)cc2C(F)(F)F)c2ccc(F)cc2)nn1
- IC50 (second compound 0.0316 µM): < 9.49 nM
- IC50 (second compound 0.1 µM): < 9.49 nM
- IC50 (second compound 0.316 µM): < 9.49 nM
- IC50 (second compound 1 µM): < 9.49 nM
- IC50 (second compound 3.16 µM): < 9.49 nM
- IC50 (second compound 10 µM): < 9.49 nM
- viability, T/C (second compound 0.0316 µM, first compound 0.00949 µM): 6.03%
- viability, T/C (second compound 0.0316 µM, first compound 0.03 µM): 5.37%
- viability, T/C (second compound 0.0316 µM, first compound 0.0949 µM): 4.33%
- viability, T/C (second compound 0.0316 µM, first compound 0.3 µM): 4.12%
- viability, T/C (second compound 0.0316 µM, first compound 0.949 µM): 5.17%
- viability, T/C (second compound 0.0316 µM, first compound 3 µM): 4.92%
- viability, T/C (second compound 0.1 µM, first compound 0.00949 µM): 6.43%
- viability, T/C (second compound 0.1 µM, first compound 0.03 µM): 5.72%
- viability, T/C (second compound 0.1 µM, first compound 0.0949 µM): 5.37%
- viability, T/C (second compound 0.1 µM, first compound 0.3 µM): 3.72%
- viability, T/C (second compound 0.1 µM, first compound 0.949 µM): 4.36%
- viability, T/C (second compound 0.1 µM, first compound 3 µM): 5.13%
- viability, T/C (second compound 0.316 µM, first compound 0.00949 µM): 6.26%
- viability, T/C (second compound 0.316 µM, first compound 0.03 µM): 5.71%
- viability, T/C (second compound 0.316 µM, first compound 0.0949 µM): 3.79%
- viability, T/C (second compound 0.316 µM, first compound 0.3 µM): 4.86%
- viability, T/C (second compound 0.316 µM, first compound 0.949 µM): 4.32%
- viability, T/C (second compound 0.316 µM, first compound 3 µM): 5.03%
- viability, T/C (second compound 1 µM, first compound 0.00949 µM): 6.64%
- viability, T/C (second compound 1 µM, first compound 0.03 µM): 7.67%
- viability, T/C (second compound 1 µM, first compound 0.0949 µM): 5.72%
- viability, T/C (second compound 1 µM, first compound 0.3 µM): 4.36%
- viability, T/C (second compound 1 µM, first compound 0.949 µM): 4.31%
- viability, T/C (second compound 1 µM, first compound 3 µM): 4.88%
- viability, T/C (second compound 3.16 µM, first compound 0.00949 µM): 6.84%
- viability, T/C (second compound 3.16 µM, first compound 0.03 µM): 4.76%
- viability, T/C (second compound 3.16 µM, first compound 0.0949 µM): 4.25%
- viability, T/C (second compound 3.16 µM, first compound 0.3 µM): 4.05%
- viability, T/C (second compound 3.16 µM, first compound 0.949 µM): 5.59%
- viability, T/C (second compound 3.16 µM, first compound 3 µM): 4.37%
- viability, T/C (second compound 10 µM, first compound 0.00949 µM): 6.5%
- viability, T/C (second compound 10 µM, first compound 0.03 µM): 4.13%
- viability, T/C (second compound 10 µM, first compound 0.0949 µM): 4.66%
- viability, T/C (second compound 10 µM, first compound 0.3 µM): 4.52%
- viability, T/C (second compound 10 µM, first compound 0.949 µM): 4.25%
- viability, T/C (second compound 10 µM, first compound 3 µM): 4.89%

Compound: COc1cc(C2c3cc4c(cc3C(OC3OC5COC(C)OC5C(O)C3O)C3COC(=O)C23)OCO4)cc(OC)c1O (stereo not drawn) + Nc1ccc(C#CCN(C(=O)Cc2ncc(C(F)(F)F)cc2C(F)(F)F)c2ccc(F)cc2)nn1
- IC50 (second compound 0.0316 µM): 934 nM
- IC50 (second compound 0.1 µM): 923 nM
- IC50 (second compound 0.316 µM): 817 nM
- IC50 (second compound 1 µM): 785 nM
- IC50 (second compound 3.16 µM): 775 nM
- IC50 (second compound 10 µM): 771 nM
- viability, T/C [1]: 98.2%
- viability, T/C [2]: 94.3%
- viability, T/C [3]: 78.4%
- viability, T/C [4]: 50.9%
- viability, T/C [5]: 14.2%
- viability, T/C [6]: 8.22%
- viability, T/C [7]: 107%
- viability, T/C [8]: 102%
- viability, T/C [9]: 84.1%
- viability, T/C [10]: 49.8%
- viability, T/C [11]: 12.3%
- viability, T/C [12]: 7.75%
- viability, T/C [13]: 98.5%
- viability, T/C [14]: 106%
- viability, T/C [15]: 82.7%
- viability, T/C [16]: 42.6%
- viability, T/C [17]: 15.1%
- viability, T/C [18]: 5.73%
- viability, T/C [19]: 112%
- viability, T/C [20]: 94.6%
- viability, T/C [21]: 79.1%
- viability, T/C [22]: 44.3%
- viability, T/C [23]: 12.8%
- viability, T/C [24]: 7.26%
- viability, T/C [25]: 107%
- viability, T/C [26]: 109%
- viability, T/C [27]: 80.3%
- viability, T/C [28]: 42%
- viability, T/C [29]: 12.3%
- viability, T/C [30]: 5.16%
- viability, T/C [31]: 115%
- viability, T/C [32]: 104%
- viability, T/C [33]: 79.3%
- viability, T/C [34]: 43.5%
- viability, T/C [35]: 10.6%
- viability, T/C [36]: 5.67%

Compound: COc1cccc2c1C(=O)c1c(O)c3c(c(O)c1C2=O)CC(O)(C(=O)CO)CC3OC1CC(N)C(O)C(C)O1 (stereo not drawn) + Nc1ccc(C#CCN(C(=O)Cc2ncc(C(F)(F)F)cc2C(F)(F)F)c2ccc(F)cc2)nn1
- IC50 (second compound 0.0316 µM): 37.4 nM
- IC50 (second compound 0.1 µM): 36 nM
- IC50 (second compound 0.316 µM): < 31.6 nM
- IC50 (second compound 1 µM): < 31.6 nM
- IC50 (second compound 3.16 µM): 32.2 nM
- IC50 (second compound 10 µM): < 31.6 nM
- viability, T/C [1]: 55.6%
- viability, T/C [2]: 19.3%
- viability, T/C [3]: 15.8%
- viability, T/C [4]: 5.05%
- viability, T/C [5]: 0.67%
- viability, T/C [6]: 0.12%
- viability, T/C [7]: 54.4%
- viability, T/C [8]: 20.7%
- viability, T/C [9]: 14.5%
- viability, T/C [10]: 6.06%
- viability, T/C [11]: 1.06%
- viability, T/C [12]: 0.39%
- viability, T/C [13]: 50.5%
- viability, T/C [14]: 20.4%
- viability, T/C [15]: 11.7%
- viability, T/C [16]: 4.87%
- viability, T/C [17]: 0.69%
- viability, T/C [18]: 0.21%
- viability, T/C [19]: 49.6%
- viability, T/C [20]: 19.9%
- viability, T/C [21]: 16.4%
- viability, T/C [22]: 4.25%
- viability, T/C [23]: 0.36%
- viability, T/C [24]: 0.66%
- viability, T/C [25]: 51.6%
- viability, T/C [26]: 17.8%
- viability, T/C [27]: 14.6%
- viability, T/C [28]: 3.6%
- viability, T/C [29]: 0.55%
- viability, T/C [30]: 0.26%
- viability, T/C [31]: 48.2%
- viability, T/C [32]: 12.7%
- viability, T/C [33]: 10.2%
- viability, T/C [34]: 3.36%
- viability, T/C [35]: 0.54%
- viability, T/C [36]: 0.27%

Compound: O=c1[nH]cc(F)c(=O)[nH]1 + Nc1ccc(C#CCN(C(=O)Cc2ncc(C(F)(F)F)cc2C(F)(F)F)c2ccc(F)cc2)nn1
- IC50 (second compound 0.0316 µM): 1730 nM
- IC50 (second compound 0.1 µM): 1740 nM
- IC50 (second compound 0.316 µM): 1850 nM
- IC50 (second compound 1 µM): 1310 nM
- IC50 (second compound 3.16 µM): 1550 nM
- IC50 (second compound 10 µM): 1550 nM
- viability, T/C [1]: 108%
- viability, T/C [2]: 116%
- viability, T/C [3]: 102%
- viability, T/C [4]: 67%
- viability, T/C [5]: 28.6%
- viability, T/C [6]: 33.2%
- viability, T/C [7]: 105%
- viability, T/C [8]: 103%
- viability, T/C [9]: 97.4%
- viability, T/C [10]: 69.2%
- viability, T/C [11]: 27.2%
- viability, T/C [12]: 30.2%
- viability, T/C [13]: 107%
- viability, T/C [14]: 106%
- viability, T/C [15]: 103%
- viability, T/C [16]: 71%
- viability, T/C [17]: 29.2%
- viability, T/C [18]: 33.9%
- viability, T/C [19]: 108%
- viability, T/C [20]: 102%
- viability, T/C [21]: 109%
- viability, T/C [22]: 56.1%
- viability, T/C [23]: 28.1%
- viability, T/C [24]: 32.1%
- viability, T/C [25]: 120%
- viability, T/C [26]: 117%
- viability, T/C [27]: 106%
- viability, T/C [28]: 63.5%
- viability, T/C [29]: 25.4%
- viability, T/C [30]: 32.5%
- viability, T/C [31]: 119%
- viability, T/C [32]: 118%
- viability, T/C [33]: 115%
- viability, T/C [34]: 63.7%
- viability, T/C [35]: 24.3%
- viability, T/C [36]: 31.1%
